The test system of series [1] is HUVECs. As to the kind of experiment: Capillary-like tube formation assay of HUVECs. Type of series: cell-based, human. The conditions noted are these: PTX-equivalent concentrations of 80 nM. The method, then: The surface of 24-well plates is coated with Cultrex® basement membrane (50 μl/well; 10 mg/ml) on ice and then allowed to polymerize at 37° C. for 30 minutes. HUVECs (3×10^4) are seeded on coated plates in the presence of conditioned media of tumor cells treated with the conjugate and its controls. After 8 hours of incubation (37° C.; 5% CO2), wells are imaged using bright-field technique (Nikon TE2000E inverted microscope integrated with Nikon DS5 cooled CCD camera by 4× objective).
The effect of the PGA-PTX-DOX conjugate (Route 1, see, FIG. 18) on capillary-like tube formation of HUVECs was tested and compared to that of the free drugs, each alone and in combination, to that of PGA alone and to that of a PGA-PTX conjugate.
The effect of PGA, free PTX (80 nM), free C3, the conjugate PGA-C3, and the conjugates PGA-PTX and PGA-PTX-C3, at PTX-equivalent concentrations of 80 nM, on capillary-like tube formation of human umbilical vein endothelial cells (HUVEC) was evaluated, in order to confirm that anti-angiogenic properties of PTX are maintained after conjugation.

Series [2] is described as follows: Conjugate size by DLS analysis. Type of series: physicochemical. The conditions noted are these: estimated from DLS analysis. From the text:
Based on DLS analysis, it is estimated that the conjugate is 10 nm in size, which is a suitable size for selective distribution by the EPR effect.

Series [3] can be described thus: Zeta potential of conjugates. The format is physicochemical. The conditions noted are these: Table 13.
In series [4] the test system is ES-2 cells. As to the kind of experiment: ES-2 proliferation after 7 minutes treatment, wash and 72 hours in medium. Type of series: cell-based, human. Particulars: wash. The protocol: The effect of PGA, free PTX and the conjugates PGA-PTX, PGA-C3, and PGA-PTX-C3 on proliferation of ES-2 cells was evaluated after incubation of the cells with each treatment for 7 minutes, washing the cells and incubation in medium for 72 hours.
Short incubation time was selected since in the usual 72-hour incubation time, both the targeted and non-targeted conjugates would have had sufficient time to internalize into the cells. Under these experiment conditions, only the targeted conjugate remained bound to the cells, while non-targeted polymers or conjugates washed off, resulting in lower efficacy.

Ends that are not written are not given here.

For the substance “PGA-C3-PTX: PGA having attached C3 NCAM targeting peptide (SEQ ID NO:3) and PTX (GASKKPKRNIKA; also: conjugated to polyglutamic acid (PGA) and paclitaxel, site not given here)”, the “inhibition of capillary-like tube formation” value in series [1] is reported as “inhibited the formation of capillary-like tubes”. Also, the “size of the conjugate” value in series [2] is 10 nm. This substance displayed a Zeta potential in series [3] of −27.3 mV. The inhibition of proliferation result in series [4] was “inhibited the proliferation of ES-2 cells more than non-targeted PGA-PTX”.
